# From ChEMBL document CHEMBL1141818, “Annonaceous acetogenins: recent progress” (J Nat Prod, 1999)
# Tests used:
# PC-3 = assay: Cytotoxicity against human PC-3 cells; assay type: functional; conditions: for EC50: Homo sapiens, PC-3, read-out: ED50 (the source's name)
# MCF7 = assay: Cytotoxicity against human MCF7 cells; assay type: functional; conditions: for EC50: Homo sapiens, MCF7, read-out: ED50 (the source's name)
# [1] = Toxicity in brine shrimp; assay type: organism-based; conditions: artemia, in vivo
# A549 = assay: Cytotoxicity against human A549 cells; assay type: functional; conditions: for EC50: Homo sapiens, A549, read-out: ED50 (the source's name)
# HT-29 = assay: Cytotoxicity against human HT-29 cells; assay type: functional; conditions: for EC50: Homo sapiens, HT-29, read-out: ED50 (the source's name)
# MIA PaCa-2 = assay: Cytotoxicity against human MIA PaCa2 cells; assay type: functional; conditions: for EC50: Homo sapiens, MIA PaCa-2, read-out: ED50 (the source's name)
# A498 = assay: Cytotoxicity against human A-498 cells; assay type: functional; conditions: Homo sapiens, A498; read-out: ED50 (the source's name)
SMILES,ED50 (PC-3),EC50 (MCF7) [µg/mL],LC50 [1] [µg/mL],EC50 (A549) [µg/mL],EC50 (HT-29) [µg/mL],ED50 (MIA PaCa-2),EC50 (A498) [µg/mL],EC50 (PC-3) [µg/mL],EC50 (MIA PaCa-2) [µg/mL],ED50 (MCF7),ED50 (A549),ED50 (HT-29) [×10⁻² ug/ml]
CCCCCCCCCC[C@@H]1O[C@H]([C@@H]2CC[C@H]([C@H](O)CCCCCCCCCC[C@@H](O)CC3=C[C@H](C)OC3=O)O2)CC[C@H]1O [JIMENEZIN],2.8 ×10⁻⁴ ug/ml,> 0.1,0.0057,0.016,0.0043,1.7 ×10⁻⁴ ug/ml,0.049,–,–,–,–,–
CCCCCCCCCC[C@@H](O)[C@H]1CC[C@H]([C@H](O)CC[C@H](O)[C@@H]2CC[C@@H](CCCCC[C@@H]3CC(CC(C)=O)C(=O)O3)O2)O1 (some centres not stated),–,> 1,3.3,0.21,> 1,–,0.21,0.0011,> 1,–,–,–
CCCCCCCCCCCCCC/C=C\[C@@H](O)C[C@H](O)[C@@H]1CC[C@@H](CCCCC[C@@H](O)CC2=C[C@H](C)OC2=O)O1 [GONIOTRIONIN],–,–,–,0.0077,0.34,–,0.002,0.36,0.0054,5.3 ×10⁻⁶ ug/ml,–,–
CCCCCCCCCCCCC(=O)C[C@@H]1C[C@@H](O)[C@@H](CC[C@H](O)[C@@H]2CC[C@@H](CCCCC[C@@H](O)CC3=C[C@H](C)OC3=O)O2)O1 [GONIOTRIOCIN],–,–,2.7,0.033,0.0012,–,1.1,0.26,1.4,3.3 ×10⁻⁵ ug/ml,–,–
CCCCCCCCCCCC[C@H](O)[C@@H](O)CC[C@H](O)[C@@H]1CC[C@@H](C[C@H](O)CCCCC[C@@H](O)CC2=C[C@H](C)OC2=O)O1 [ANNOPENTOCIN B],–,3.6,0.11,0.027,1.6,–,0.38,0.21,0.16,–,–,–
CCCCCCCCCC[C@@H](O)[C@H]1CC[C@H]([C@H]2CC[C@H]([C@H](O)CCCC[C@H](O)CCCCC[C@@H](O)CC3=C[C@H](C)OC3=O)O2)O1,–,0.33,0.43,0.67,0.76,–,> 1,0.53,> 1,–,–,–
CCCCCCCCCCCC[C@H](O)[C@@H]1CC[C@H]([C@H](O)CCCCCC(O)CCCCCCC2=C[C@H](C)OC2=O)O1 (some centres not stated),–,1.7,6.8,2,1.4,–,1.8,2.1,1.1,–,–,–
CCCCCCCCCCCCCCCCC[C@@H](O)[C@H]1C[C@H](O)[C@H]([C@H]2CC[C@H]([C@H](O)CCCCCC3=C[C@H](C)OC3=O)O2)O1 [MUCOXIN],–,0.0037,–,0.036,0.61,–,0.84,0.31,0.33,–,–,–
CCCCCCCCCCCC[C@@H](O)[C@H]1CC[C@H]([C@H]2CCC[C@@H]([C@@H](O)CCCCCCC[C@@H](O)CC3=C[C@H](C)OC3=O)O2)O1 [MUCONIN],–,–,–,0.0045,0.39,5.4 ×10⁻⁴ ug/ml,0.18,0.58,–,2.4 ×10⁻⁴ ug/ml,–,–
CCCCCCCCCCCC[C@@H](O)[C@H]1CC[C@H]([C@H](O)CCCCC[C@@H](O)CCCCCC[C@@H]2CC(CC(C)=O)C(=O)O2)O1 (mixture of isomers),–,1.7,2.7,1.9,1.4,–,1.5,2.2,0.0045,–,–,–
CCCCCCCCCCCC[C@H](O)[C@H]1CC[C@H]([C@H](O)CCCCCC(=O)CCCC[C@@H](O)CC2=C[C@H](C)OC2=O)O1 [MOSIN B],–,> 1,–,0.94,> 1,1.2 ×10⁻⁴ ug/ml,> 1,> 1,–,–,–,–
CCCCCCCCCCCCCC[C@H]1O[C@@H]([C@H](O)CC[C@H](O)CCCCC[C@@H](O)CC2=C[C@H](C)OC2=O)CC[C@H]1O [PYRAGONICIN],–,1.6,0.9,2,2.8,–,0.13,0.12,0.058,–,–,–
CC[C@H](O)[C@H](O)CCCCCC[C@H](O)[C@H]1CC[C@H]([C@H]2CC[C@H]([C@H](O)CCCCCCCCCCCCC3=C[C@H](C)OC3=O)O2)O1 [BULLATETROCIN],–,0.5,0.31,0.35,0.33,–,> 1,> 1,> 1,–,–,–
CCCCCCCCCCCC[C@@H](O)[C@H]1CC[C@H]([C@H](O)CCCCCC[C@H](O)CCCCC[C@@H]2CC(CC(C)=O)C(=O)O2)O1 (mixture of isomers),–,3.2,0.31,2.6,0.26,–,1.4,1,0.68,–,–,–
CCCCCCCCCCCC[C@H](O)[C@H](O)CC[C@H](O)[C@@H]1CC[C@@H](C[C@H](O)CCCCC[C@@H](O)CC2=C[C@H](C)OC2=O)O1 [ANNOPENTOCIN C],–,0.3,14,0.021,1.2,–,0.26,0.23,0.43,–,–,–
CCCCCCCCCCCC[C@@H](O)[C@@H](O)CC[C@H](O)[C@@H]1CC[C@@H](C[C@@H](O)C[C@@H](O)CCC[C@@H](O)CC2=C[C@H](C)OC2=O)O1 [MURICOREACIN],–,1.3,19,0.0023,0.57,–,0.71,0.025,2.3,–,–,–
CCCCCCCCCCCC[C@H](O)[C@H]1CC[C@H]([C@H](O)CCCC[C@H](O)CCCCCCC[C@@H](O)CC2=C[C@H](C)OC2=O)O1 [ANNOGLACIN A],–,–,0.49,0.0053,0.0053,5.1 ×10⁻⁷ ug/ml,0.9,0.002,–,9.6 ×10⁻⁴ ug/ml,–,–
CCCCCCCCCCCC[C@H](O)[C@H]1CC[C@H]([C@H]2CC[C@H]([C@H](O)CCCCCCCC[C@@H](O)CC3=C[C@H](C)OC3=O)O2)O1 [SQUAMOTACIN],1 ×10⁻⁸ ug/ml,–,–,–,–,–,–,–,–,–,–,–
CCCCCCCCCC[C@H](O)[C@@H](O)CCCC[C@H]1CC[C@H]([C@H]2CC[C@H]([C@H](O)CCCCC[C@@H](O)CC3=C[C@H](C)OC3=O)O2)O1 (stereo in doubt; 21) [GLACIN B],5.6 ×10⁻² ug/ml,–,0.27,–,–,1.5 ×10⁻² ug/ml,2.6,–,–,5.2 ×10⁻² ug/ml,1.3 µg/mL,8.7
CCCCCCCCCCCC/C=C\CC[C@@H](O)[C@H](O)CCCCCCC(=O)CCCCCCCC1=C[C@H](C)OC1=O [ANNOJAHNIN],–,2.8,11,1.5,0.059,–,4.9,0.016,0.023,–,–,–
CCCCCCCCCC[C@@H](O)[C@H]1CC[C@H]([C@H]2CC[C@H]([C@H](O)CCCCCC(=O)CCCC[C@@H]3CC(CC(C)=O)C(=O)O3)O2)O1 (mixture of isomers),–,0.26,0.67,0.0057,0.004,–,0.46,1.1,1.2,–,–,–
CCCCCCCCCCCC[C@@H](O)[C@@H](O)CC[C@H](O)[C@@H]1CC[C@@H](CCC[C@@H](O)[C@H](O)CC[C@@H](O)CC2=C[C@H](C)OC2=O)O1 [MURIHEXOCIN],–,3.8,10,1.1,1.3,–,2.5,0.86,0.49,–,–,–
CCCCCCCCCC/C=C\CC[C@@H](O)[C@H]1CC[C@H]([C@H](O)CCCCCC(=O)CCCC[C@@H]2CC(CC(C)=O)C(=O)O2)O1 (some centres not stated),–,> 1,0.44,> 1,> 1,–,> 1,0.032,0.22,–,–,–
CCCCCCCCCC[C@@H](O)[C@H]1CC[C@H]([C@H]2CC[C@H]([C@H](O)CCCCC[C@@H](O)CCCCC3CC(CC(C)=O)C(=O)O3)O2)O1 (some centres not stated),–,0.0012,0.35,0.077,1.4,1.7 ×10⁻⁴ ug/ml,0.036,0.16,–,–,–,–
CCCCCCCCCCCC[C@@H](O)[C@H]1CC[C@@H]([C@@H]2CC[C@@H](CCCCCCCCC[C@@H](O)CC3=C[C@H](C)OC3=O)O2)O1 [ROLLIDECIN D],–,5,–,5.9,5.4,–,4,1.9,1,–,–,–
CCCCCCCCCCCC[C@@H](O)[C@H]1CC[C@@H]([C@@H]2CC[C@@H](CCCCCCC[C@@H](O)CC3=C[C@H](C)OC3=O)O2)O1 [ROLLIDECIN C],–,1.1,–,1.3,0.063,–,1.4,0.29,0.11,–,–,–
CCCCCCCCCCCC[C@H](O)[C@@H]1CC[C@H]([C@H](O)CCCCCC(=O)CCCC[C@@H](O)CC2=C[C@H](C)OC2=O)O1 [MOSIN C],–,> 1,–,0.6,> 1,1.2 ×10⁻⁴ ug/ml,> 1,> 1,–,–,–,–
CCCCCCCCCC[C@@H](O)[C@H]1CC[C@@H]([C@H]2CC[C@H]([C@H](O)CCCC[C@H](O)CCCCC[C@@H](O)CC3=C[C@H](C)OC3=O)O2)O1,–,–,–,–,0.14,–,0.01,0.38,0.2,1.9 ×10⁻⁸ ug/ml,1 ×10⁻⁸ ug/ml,–
